From patent US11739100B2, “2,3-dihydro-1h-imidazo{1,2-a}pyrimidin-5-one and this 1,2,3,4-tetrahydropyrimido{1,2-a}pyrimidin-6-one derivatives comprising a substituted morpholine, preparation thereof and pharmaceutical use thereof” (SANOFI, priority 2012, dated 2023) come the findings set out here.

This assay concerns the target T1, recombinant Vps34 (Homo sapiens, UniProt Q8NEB9).
T1 construct: purchased Invitrogen PV5126
Kind of assay: Phosphorylation of phosphatidylinositol (PI) by Vps34 in vitro, ADP detected by TR-FRET (HTRF Transcreener ADP). Format: biochemical. The conditions noted are these: 10 μM ATP, 55 μg/ml PI, approximately 3 nM Vps34, 1 hour at ambient temperature; absolute IC50, mean of two independent experiments; read-out: IC50 activity range. For orientation: In TR-FRET formats the signal depends on donor and acceptor labels being close together.

T1 sequence (Q8NEB9 whole entry): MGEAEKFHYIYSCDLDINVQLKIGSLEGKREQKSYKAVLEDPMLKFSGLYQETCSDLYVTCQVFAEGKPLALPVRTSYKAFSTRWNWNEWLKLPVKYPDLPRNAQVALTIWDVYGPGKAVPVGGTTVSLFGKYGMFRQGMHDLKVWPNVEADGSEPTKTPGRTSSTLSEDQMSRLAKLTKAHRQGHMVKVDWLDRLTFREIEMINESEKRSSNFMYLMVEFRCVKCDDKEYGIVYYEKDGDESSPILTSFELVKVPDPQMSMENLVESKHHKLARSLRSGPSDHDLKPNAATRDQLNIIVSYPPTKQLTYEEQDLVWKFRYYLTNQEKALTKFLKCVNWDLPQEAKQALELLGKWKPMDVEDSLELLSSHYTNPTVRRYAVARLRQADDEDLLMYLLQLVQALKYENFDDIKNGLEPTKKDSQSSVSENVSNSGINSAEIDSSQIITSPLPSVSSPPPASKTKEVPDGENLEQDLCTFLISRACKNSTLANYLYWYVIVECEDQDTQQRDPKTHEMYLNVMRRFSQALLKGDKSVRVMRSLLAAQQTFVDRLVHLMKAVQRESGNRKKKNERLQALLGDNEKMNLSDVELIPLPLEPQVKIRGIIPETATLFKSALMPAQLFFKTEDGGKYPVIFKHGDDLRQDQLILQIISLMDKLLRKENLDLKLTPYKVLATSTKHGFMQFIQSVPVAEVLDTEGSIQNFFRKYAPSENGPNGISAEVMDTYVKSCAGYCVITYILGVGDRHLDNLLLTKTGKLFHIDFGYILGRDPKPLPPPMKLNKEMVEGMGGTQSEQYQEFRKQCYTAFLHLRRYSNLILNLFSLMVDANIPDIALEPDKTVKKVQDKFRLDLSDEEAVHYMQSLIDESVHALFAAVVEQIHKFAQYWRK

With `CC1COCC(C)N1c1cc(=O)n2c(n1)N(Cc1ccc(Cl)s1)[C@H](C(F)(F)F)CC2` (stereo in doubt) [Example 152, (S)-9-(5-Chloro-thiophen-2-ylmethyl)-2-((3S,5S)-3,5-dimethylmorpholin-4-yl)-8-trifluoromethyl-6,7,8,9-tetrahydro-pyrimido[1,2-a]-pyrimidin-4-one], the IC50 is less than 10 nM.
Regarding `O=c1cc(N2CCOC(CF)C2)nc2n1CC[C@@H](C(F)(F)F)N2Cc1ccccc1` (stereo partly drawn) [Example 193, (S)-9-Benzyl-2-(2-fluoromethyl-morpholin-4-yl)-8-trifluoromethyl-6,7,8,9-tetrahydro-pyrimido[1,2-a]-pyrimidin-4-one], the 50% inhibitory concentration (IC50) was greater than 100 nM.
To `Cc1nc(CN2c3nc(N4CCOC[C@H]4C)cc(=O)n3CC[C@H]2C(F)(F)F)c(C)o1` [Example 93, (S)-9-(2,5-Dimethyl-oxazol-4-ylmethyl)-2-((R)-3-methyl-morpholin-4-yl)-8-trifluoromethyl-6,7,8,9-tetrahydro-pyrimido[1,2-a]-pyrimidin-4-one] belongs less than 10 nM; to `C[C@@H]1COCCN1c1cc(=O)n2c(n1)N(CC(=O)N1CC3(CCO3)C1)[C@H](C(F)(F)F)CC2` [Example 330, (S)-2-((R)-3-Methyl-morpholin-4-yl)-9-[2-(1-oxa-6-aza-spiro[3.3]hept-6-yl)-2-oxoethyl]-8-trifluoromethyl-6,7,8,9-tetrahydropyrimido-[1,2-a]pyrimidin-4-one], 10 to 100 nM; to `C[C@@H]1COCCN1c1cc(=O)n2c(n1)N(CC1(C3CC3)CCO1)[C@H](C(F)(F)F)CC2` (single isomer, unassigned) [Example 308], less than 10 nM.
To `C[C@@H]1COCCN1c1cc(=O)n2c(n1)N(Cc1cnco1)CC[C@@H]2C(F)(F)F` [Example 117, (R)-2-((R)-3-Methyl-morpholin-4-yl)-9-oxazol-5-ylmethyl-6-trifluoromethyl-6,7,8,9-tetrahydro-pyrimido[1,2-a]-pyrimidin-4-one] belongs 10 to 100 nM; to `C[C@@H]1COCCN1c1cc(=O)n2c(n1)N(c1ccc(C(F)(F)F)nc1)[C@H](C(F)(F)F)CC2` [Example 81, (S)-2-((R)-3-Methyl-morpholin-4-yl)-8-trifluoromethyl-9-(6-trifluoromethylpyridin-3-yl)-6,7,8,9-tetrahydro-pyrimido[1,2-a]-pyrimidin-4-one], less than 10 nM.
To `Cc1nocc1CN1c2nc(N3CCOC[C@H]3C)c(F)c(=O)n2CC[C@H]1C(F)(F)F` [Example 62, (S)-3-Fluoro-9-(3-methylisoxazol-4-yl-methyl)-2-((R)-3-methylmorpholin-4-yl)-8-trifluoromethyl-6,7,8,9-tetrahydro-pyrimido[1,2-a]-pyrimidin-4-one] belongs less than 10 nM; to `C[C@@H]1COCCN1c1cc(=O)n2c(n1)N(Cc1cscn1)[C@H](C(F)(F)F)CC2` [Example 78, (S)-2-((R)-3-Methyl-morpholin-4-yl)-9-thiazol-4-ylmethyl-8-trifluoromethyl-6,7,8,9-tetrahydro-pyrimido[1,2-a]-pyrimidin-4-one], less than 10 nM; to `C[C@@H]1COCCN1c1nc2n(c(=O)c1F)CC[C@@H](C(F)(F)F)N2CC(=O)N1CC2(CCO2)C1` [Example 333, (S)-3-Fluoro-2-((R)-3-methylmorpholin-4-yl)-9-[2-(1-oxa-6-aza-spiro[3.3]hept-6-yl)-2-oxoethyl]-8-trifluoromethyl-6,7,8,9-tetrahydropyrimido-[1,2-a]pyrimidin-4-one], less than 10 nM.
`C[C@@H]1COCCN1c1nc2n(c(=O)c1F)[C@@H](C(F)(F)F)CCN2Cc1nc(C(F)(F)F)no1` [Example 28, (R)-3-Fluoro-2-((R)-3-methylmorpholin-4-yl)-6-trifluoromethyl-9-(3-trifluoromethyl-[1,2,4]oxadiazol-5-yl-methyl)-6,7,8,9-tetrahydro-pyrimido[1,2-a]-pyrimidin-4-one]: the IC50 is less than 10 nM.
Consider `C[C@@H]1COCCN1c1cc(=O)n2c(n1)N(Cc1cccnc1)[C@H](C(F)(F)F)CC2` [Example 217, (S)-2-((R)-3-Methyl-morpholin-4-yl)-9-pyridin-3-ylmethyl-8-trifluoromethyl-6,7,8,9-tetrahydro-pyrimido[1,2-a]-pyrimidin-4-one], for which the IC50 was less than 10 nM.
On to `C[C@@H]1COCCN1c1cc(=O)n2c(n1)N(CC(=O)N1CCCO1)[C@H](C(F)(F)F)CC2` [Example 319, (S)-9-(2-Isoxazolidin-2-yl-2-oxoethyl)-2-((R)-3-methyl-morpholin-4-yl)-8-trifluoromethyl-6,7,8,9-tetrahydropyrimido-[1,2-a]pyrimidin-4-one], for which the IC50 was less than 10 nM.
To `COC(=O)CN1c2nc(N3CCOC[C@H]3C)c(F)c(=O)n2CC[C@H]1C(F)(F)F` [Example 283, [(S)-7-Fluoro-8-((R)-3-methylmorpholin-4-yl)-6-oxo-2-trifluoromethyl-3,4-dihydro-2H,6H-pyrimido[1,2-a]-pyrimidin-1-yl]acetic acid methyl ester] belongs less than 10 nM.
As for `C[C@@H]1COCCN1c1cc(=O)n2c(n1)N(Cc1nccs1)[C@H](C(F)(F)F)CC2` [Example 231, (S)-2-((R)-3-Methyl-morpholin-4-yl)-9-thiazol-2-ylmethyl-8-trifluoromethyl-6,7,8,9-tetrahydro-pyrimido[1,2-a]-pyrimidin-4-one], the figure is less than 10 nM.

Usually IC50 stands for the concentration needed to halve the response being measured.
